{"source": "paper PMC10508830", "about": "(Antiviral research, 2023)", "molecular_target": "NA of clade 2.3.4.4b A(H5N1) viruses lacking the flagged NA substitutions (n = 15) (Influenza A virus, UniProt Q9Q0U7)", "sequence (Q9Q0U7 whole entry, looked up)": "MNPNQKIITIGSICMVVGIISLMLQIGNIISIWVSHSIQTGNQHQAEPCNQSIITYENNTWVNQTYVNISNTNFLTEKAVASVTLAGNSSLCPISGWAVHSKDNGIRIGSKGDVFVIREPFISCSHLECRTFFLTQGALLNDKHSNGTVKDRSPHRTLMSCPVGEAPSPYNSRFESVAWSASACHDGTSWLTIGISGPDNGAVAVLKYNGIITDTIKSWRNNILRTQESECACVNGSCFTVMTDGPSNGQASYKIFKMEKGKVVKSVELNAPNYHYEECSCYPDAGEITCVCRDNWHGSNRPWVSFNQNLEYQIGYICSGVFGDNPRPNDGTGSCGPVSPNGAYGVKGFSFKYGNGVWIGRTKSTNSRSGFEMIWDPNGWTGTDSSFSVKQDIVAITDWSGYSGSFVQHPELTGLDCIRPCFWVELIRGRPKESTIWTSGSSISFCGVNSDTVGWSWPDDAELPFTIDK", "type": "biochemical", "settings": "read-out: Median IC50 A(H5N1)"}
{"substance": "peramivir", "values": [{"measurement": "IC50", "value": 0.1, "unit": "nM"}]}
